Measured values as given in patent US20200368247A1, “CENICRIVIROC FOR THE TREATMENT OF FIBROSIS” (Tobira Therapeutics, Inc., priority 2014, published 2020).

Columns and labels:
[1] = Study 202 fasting metabolic laboratory parameters; format: in vivo, human
Text: All abnormalities in total cholesterol, LDL cholesterol, triglycerides, or glucose were Grade 1 or Grade 2.
Mean baseline values and changes from baseline in HbA1c, HOMA-IR, fasting LDL, fasting HDL, fasting total cholesterol, fasting total cholesterol/HDL ratio, and fasting triglycerides are shown in Table 36.

[2] = Study 202 treatment-emergent laboratory abnormalities (DAIDS grade); format: in vivo, human
Text: The 12th subject (Subject 42001) had 2 consecutive CPK elevations (Grade 3 followed by Grade 4) that returned to normal values while continuing treatment at a subsequent visit. None of the CPK elevations were associated with clinical symptoms; no subjects discontinued due to CPK elevations and there were no differences in AEs related to musculoskeletal disorders between the CVC and EFV arms.
The number of subjects with graded treatment-emergent laboratory abnormalities in selected liver parameters of interest is shown in Table 34. No Grade 4 ALT or AST elevations were observed. Except for one Grade 3 AST elevation, all ALT and AST elevations were Grade 1 or Grade 2. […] All abnormalities in bilirubin were Grade 1 or Grade 2. […]

[3] = All CVC (N = 115), EFV (N = 28), through Week 48
[4] = CVC 100 mg (N = 58), through Week 48
[5] = CVC 200 mg (N = 57), through Week 48
[6] = All CVC (N = 115), EFV (N = 28)

In the case of `CCCCOCCOc1ccc(-c2ccc3c(c2)/C=C(/C(=O)Nc2ccc([S@@+]([O-])Cc4cncn4CCC)cc2)CCCN3CC(C)C)cc1` [CVC, (S)-8-[4-(2-Butoxyethoxy)phenyl]-1-isobutyl-N-(4-{[(1-propyl-1H-imidazol-5-yl)methyl]sulfinyl}phenyl)-1,2,3,4-tetrahydro-1-benzazocine-5-carboxamide], the “Any fasting laboratory abnormality, worst Grade 1” value [1, 3] is reported as 9 (8%) n (%), the “Any fasting laboratory abnormality, worst Grade 2” value [1, 3] is reported as 7 (6%) n (%) and the “Any fasting laboratory abnormality, worst Grade 3” value [1, 3] is reported as 0 n (%). The “Any fasting laboratory abnormality, worst Grade 4” value [1, 3] was 0 n (%), the “Any graded (Grade 1-4) fasting laboratory abnormality” value [1, 3] was 16 (14%) n (%) and the “Fasting LDL cholesterol abnormality, Grade 1” value [1, 3] was 3 (3%) n (%). The “Fasting LDL cholesterol abnormality, Grade 2” value [1, 3] was 3 (3%) n (%), the “Fasting LDL cholesterol abnormality, Grade 3” value [1, 3] was 0 n (%) and the “Fasting LDL cholesterol abnormality, Grade 4” value [1, 3] was 0 n (%). The “Fasting LDL cholesterol abnormality, any grade” value [1, 3] was 6 (5%) n (%), the “Fasting glucose (serum, high) abnormality, Grade 1” value [1, 3] was 3 (3%) n (%) and the “Fasting glucose (serum, high) abnormality, Grade 2” value [1, 3] was 2 (2%) n (%). The “Fasting glucose (serum, high) abnormality, Grade 3” value [1, 3] was 0 n (%), the “Fasting glucose (serum, high) abnormality, Grade 4” value [1, 3] was 0 n (%) and the “Fasting glucose (serum, high) abnormality, any grade” value [1, 3] was 5 (4%) n (%). The “Fasting total cholesterol abnormality, Grade 1” value [1, 3] was 5 (4%) n (%), the “Fasting total cholesterol abnormality, Grade 2” value [1, 3] was 3 (3%) n (%) and the “Fasting total cholesterol abnormality, Grade 3” value [1, 3] was 0 n (%). For the same compound, the “Fasting total cholesterol abnormality, Grade 4” value [1, 3] was 0 n (%), the “Fasting total cholesterol abnormality, any grade” value [1, 3] was 8 (7%) n (%) and the “Fasting triglycerides abnormality, Grade 1” value [1, 3] was 0 n (%). The “Fasting triglycerides abnormality, Grade 2” value [1, 3] was 1 (<1%) n (%), the “Fasting triglycerides abnormality, Grade 3” value [1, 3] was 0 n (%) and the “Fasting triglycerides abnormality, Grade 4” value [1, 3] was 0 n (%). The “Fasting triglycerides abnormality, any grade” value [1, 3] was 1 (<1%) n (%), the “Fasting triglycerides, mean change from baseline” value ([1]; All CVC, EFV, Week 4) was -5 mg/dL and the “HOMA-IR, mean change from baseline” value ([1]; All CVC, EFV, Week 4) was −0.30. The “HbA1c, mean change from baseline” value ([1]; All CVC, EFV, Week 4) was −0.03 % Hb, the “HbA1c, mean change from baseline” value ([1]; All CVC, EFV, Week 12) was −0.06 % Hb and the “HbA1c, mean change from baseline” value ([1]; All CVC, EFV, Week 24) was 0.06 % Hb. For the same compound, the “HbA1c, mean change from baseline” value ([1]; All CVC, EFV, Week 48) was 0.10 % Hb, the “Any fasting laboratory abnormality, worst Grade 1” value [1, 4] was 3 (5%) n (%) and the “Any fasting laboratory abnormality, worst Grade 2” value [1, 4] was 1 (2%) n (%). The “Any fasting laboratory abnormality, worst Grade 3” value [1, 4] was 0 n (%), the “Any fasting laboratory abnormality, worst Grade 4” value [1, 4] was 0 n (%) and the “Any graded (Grade 1-4) fasting laboratory abnormality” value [1, 4] was 4 (7%) n (%). The “Fasting LDL cholesterol abnormality, Grade 1” value [1, 4] was 1 (2%) n (%), the “Fasting LDL cholesterol abnormality, Grade 2” value [1, 4] was 1 (2%) n (%) and the “Fasting LDL cholesterol abnormality, Grade 3” value [1, 4] was 0 n (%). For the same compound, the “Fasting LDL cholesterol abnormality, Grade 4” value [1, 4] was 0 n (%), the “Fasting LDL cholesterol abnormality, any grade” value [1, 4] was 2 (3%) n (%) and the “Fasting glucose (serum, high) abnormality, Grade 1” value [1, 4] was 0 n (%). For the same compound, the “Fasting glucose (serum, high) abnormality, Grade 2” value [1, 4] was 0 n (%), the “Fasting glucose (serum, high) abnormality, Grade 3” value [1, 4] was 0 n (%) and the “Fasting glucose (serum, high) abnormality, Grade 4” value [1, 4] was 0 n (%). The “Fasting glucose (serum, high) abnormality, any grade” value [1, 4] was 0 n (%), the “Fasting total cholesterol abnormality, Grade 1” value [1, 4] was 3 (5%) n (%) and the “Fasting total cholesterol abnormality, Grade 2” value [1, 4] was 0 n (%). The “Fasting total cholesterol abnormality, Grade 3” value [1, 4] was 0 n (%), the “Fasting total cholesterol abnormality, Grade 4” value [1, 4] was 0 n (%) and the “Fasting total cholesterol abnormality, any grade” value [1, 4] was 3 (5%) n (%). For the same compound, the “Fasting triglycerides abnormality, Grade 1” value [1, 4] was 0 n (%), the “Fasting triglycerides abnormality, Grade 2” value [1, 4] was 0 n (%) and the “Fasting triglycerides abnormality, Grade 3” value [1, 4] was 0 n (%). The “Fasting triglycerides abnormality, Grade 4” value [1, 4] was 0 n (%), the “Fasting triglycerides abnormality, any grade” value [1, 4] was 0 n (%) and the “change in fasting total cholesterol (mainly LDL cholesterol)” value ([1]; CVC 100 mg and 200 mg, through Week 48) was “decrease”. The “Fasting triglycerides, mean change from baseline” value ([1]; CVC 100 mg, Week 4) was -8 mg/dL, the “HbA1c, mean change from baseline” value ([1]; CVC 100 mg, Week 4) was 0.01 % Hb and the “HbA1c, mean change from baseline” value ([1]; CVC 100 mg, Week 12) was −0.04 % Hb. For the same compound, the “Fasting triglycerides, mean change from baseline” value ([1]; CVC 100 mg, Week 24) was -8 mg/dL, the “HbA1c, mean change from baseline” value ([1]; CVC 100 mg, Week 24) was 0.06 % Hb and the “HbA1c, mean change from baseline” value ([1]; CVC 100 mg, Week 48) was 0.09 % Hb. The “Any fasting laboratory abnormality, worst Grade 1” value [1, 5] was 6 (11%) n (%), the “Any fasting laboratory abnormality, worst Grade 2” value [1, 5] was 6 (11%) n (%) and the “Any fasting laboratory abnormality, worst Grade 3” value [1, 5] was 0 n (%). For the same compound, the “Any fasting laboratory abnormality, worst Grade 4” value [1, 5] was 0 n (%), the “Any graded (Grade 1-4) fasting laboratory abnormality” value [1, 5] was 12 (21%) n (%) and the “Fasting LDL cholesterol abnormality, Grade 1” value [1, 5] was 2 (4%) n (%). For the same compound, the “Fasting LDL cholesterol abnormality, Grade 2” value [1, 5] was 2 (4%) n (%), the “Fasting LDL cholesterol abnormality, Grade 3” value [1, 5] was 0 n (%) and the “Fasting LDL cholesterol abnormality, Grade 4” value [1, 5] was 0 n (%). The “Fasting LDL cholesterol abnormality, any grade” value [1, 5] was 4 (7%) n (%), the “Fasting glucose (serum, high) abnormality, Grade 1” value [1, 5] was 3 (5%) n (%) and the “Fasting glucose (serum, high) abnormality, Grade 2” value [1, 5] was 2 (4%) n (%). For the same compound, the “Fasting glucose (serum, high) abnormality, Grade 3” value [1, 5] was 0 n (%), the “Fasting glucose (serum, high) abnormality, Grade 4” value [1, 5] was 0 n (%) and the “Fasting glucose (serum, high) abnormality, any grade” value [1, 5] was 5 (9%) n (%). For the same compound, the “Fasting total cholesterol abnormality, Grade 1” value [1, 5] was 2 (4%) n (%), the “Fasting total cholesterol abnormality, Grade 2” value [1, 5] was 3 (5%) n (%) and the “Fasting total cholesterol abnormality, Grade 3” value [1, 5] was 0 n (%). The “Fasting total cholesterol abnormality, Grade 4” value [1, 5] was 0 n (%), the “Fasting total cholesterol abnormality, any grade” value [1, 5] was 5 (9%) n (%) and the “Fasting triglycerides abnormality, Grade 1” value [1, 5] was 0 n (%). For the same compound, the “Fasting triglycerides abnormality, Grade 2” value [1, 5] was 1 (2%) n (%), the “Fasting triglycerides abnormality, Grade 3” value [1, 5] was 0 n (%) and the “Fasting triglycerides abnormality, Grade 4” value [1, 5] was 0 n (%). For the same compound, the “Fasting triglycerides abnormality, any grade” value [1, 5] was 1 (2%) n (%), the “Fasting triglycerides, mean change from baseline” value ([1]; CVC 200 mg, Week 4) was -2 mg/dL and the “HbA1c, mean change from baseline” value ([1]; CVC 200 mg, Week 4) was −0.08 % Hb. For the same compound, the “HbA1c, mean change from baseline” value ([1]; CVC 200 mg, Week 12) was −0.08 % Hb, the “HbA1c, mean change from baseline” value ([1]; CVC 200 mg, Week 24) was 0.06 % Hb and the “Fasting total cholesterol, mean change from baseline” value ([1]; CVC 200 mg, Week 48) was -9 mg/dL. The “HbA1c, mean change from baseline” value ([1]; CVC 200 mg, Week 48) was 0.10 % Hb, the “Any graded (Grade 1-4) laboratory abnormality, %” value ([2]; All CVC) was 92% and the “Worst Grade 1 laboratory abnormality, %” value ([2]; All CVC) was 32%. The “Worst Grade 2 laboratory abnormality, %” value ([2]; All CVC) was 43%, the “Worst Grade 3 laboratory abnormality, %” value ([2]; All CVC) was 11% and the “Worst Grade 4 laboratory abnormality, %” value ([2]; All CVC) was 5%. The “ALT abnormality, worst Grade 1” value [2, 6] was 10 (9%) n (%), the “ALT abnormality, worst Grade 2” value [2, 6] was 5 (4%) n (%) and the “ALT abnormality, worst Grade 3” value [2, 6] was 0 n (%). For the same compound, the “ALT abnormality, worst Grade 4” value [2, 6] was 0 n (%), the “AST abnormality, worst Grade 1” value [2, 6] was 14 (12%) n (%) and the “AST abnormality, worst Grade 2” value [2, 6] was 6 (5%) n (%). The “AST abnormality, worst Grade 3” value [2, 6] was 1 (< %) n (%), the “AST abnormality, worst Grade 4” value [2, 6] was 0 n (%) and the “Alanine aminotransferase (ALT) abnormality, any worst grade” value [2, 6] was 15 (13%) n (%).
